Experiments:
[1] = cited from earlier work
[2] = cited from earlier work; remark: listed apart in the source
[3] = test system: 14 human cell lines; assay: compounds tested against 14 human cell lines (in vitro); type: cell-based
From the text: What is interesting from these in vitro data is that the activity of these esters is related to the substituents on their side aromatic rings. […] Thus, the difference in activity among the esters of the present invention are due to the different substituents on their side aromatic ring.

[4] = patients, early trials; cited from earlier work
[5] = test system: mouse leukemia L 1210; details: initial test; cited from earlier work
[6] = animal models; cited from earlier work
[7] = cited from earlier work; remark: listed apart in the source

Molecule: CC[C@@]1(O)C(=O)OCc2c1cc1n(c2=O)Cc2cc3c([N+](=O)[O-])cccc3nc2-1 [9-nitrocamptothecin]
- found as the lactone form in human plasma [1]: 5%
- present as lactone form in mice plasma [2]: about 50%

Molecule: 20-O-phenyl-9-nitrocamptothecin [CZ176]
- activity (response of 14 human cell lines) [3]: do not show any activity

Molecule: CC[C@@]1(O)C(=O)OCc2c1cc1n(c2=O)Cc2cc3ccccc3nc2-1 [Camptothecin]
- anticancer activity in human clinical trials [4]: anticancer activity was not found
- toxicity in human clinical trials [4]: severe toxicity was observed
- activity against mouse leukemia L 1210 [5]: showed good activity

Molecule: CC[C@@]1(OC(=O)c2ccccc2)C(=O)OCc2c1cc1n(c2=O)Cc2cc3ccccc3nc2-1 [CZ222]
- activity (response of 14 human cell lines) [3]: do not show any activity

Molecule: CC[C@@](O)(C(=O)[O-])c1cc2n(c(=O)c1CO)Cc1cc3ccccc3nc1-2.[Na+] [CPT sodium carboxylate]
- potency relative to the parent camptothecin [6]: 10-20%
- solubility in water [7]: water-soluble

— patent US6407239B1, “Aromatic esters of camptothecins and methods to treat cancers” (priority 1999, dated 2002)
